Measured values from US4200755A, “2-Hydro xy-5-[1-hydroxy-2-[4-(2-oxo-1-benzimidazolinyl)piperidino]ethyl]benzoic acid derivatives” (Richardson-Merrell Inc., priority 1979, dated 1980).
Structures can show the parent of a compound that is named as a salt.

Columns and labels:
α-adrenergic receptor = assay: α-Adrenergic receptor blocking activity in vitro, isolated rabbit aortic strip preparation, norepinephrine as agonist; type: cell-based
Protocol: (§1) The following Example is illustrative of the α and β-adrenergic blocking activity and the direct spasmolytic activity for the compounds of this invention.
α-Adrenergic receptor blocking activity is determined in vitro by performing cumulative dose-response experiments in the isolated rabbit aortic strip preparation using norepinephrine as the agonist. The contractile response of the rabbit strip preparation in the presence of logarithmically increasing concentrations of the compounds being tested are expressed as percent of the maximal attainable response. Relative antagonistic potency is expressed as a pA2 value.

β-adrenergic receptor = target: T1, β-adrenergic receptor (Cavia porcellus, UniProt H0W3H1); assay: β-Adrenergic receptor blocking activity in vitro, isolated guinea pig atria preparation, isoproterenol as agonist; type: cell-based; conditions: isolated guinea pig atria (increase in rate), read-out: pA2 β (converted)
T1 construct: isolated guinea pig atria preparation; from tissue; host or cells: guinea pig atria
Protocol: as §1
(§2) β-Adrenergic receptor blocking activity is determined in vitro by performing cumulative dose-response experiments in the isolated guinea pig atria preparation using isoproterenol as the agonist. The response (increase in rate) of the guinea pig atria preparation in the presence of logarithmically increasing concentrations of the compounds being tested are expressed as percent of the maximal attainable response. Relative antagonistic potency is expressed as a pA2 value, as defined above.

[1] = test system: isolated guinea pig ileum preparation; assay: Direct spasmolytic activity in vitro, isolated guinea pig ileum preparation, barium chloride as agonist; type: cell-based
Protocol: as §1
as §2, with “Direct spasmolytic” for “β-Adrenergic receptor blocking”, “dose response” for “dose-response”, “ileum” for “atria”, “barium chloride” for “isoproterenol”, “The contractile” for “The”, “response” for “response (increase in rate)”

[2] = test system: spontaneously hypertensive rats (SHR); assay: Antihypertensive activity in spontaneously hypertensive rats (SHR), systolic blood pressure; type: in vivo, rat (SHR, Okomoto-Aoki strain); conditions: oral 50 mg/kg
Protocol: The following Example illustrates the antihypertensive activity for the compounds of this invention. Antihypertensive activity is determined in spontaneously hypertensive rats (SHR) of the Okomoto-Aoki strain. Systolic blood pressure of the SHR is measured from the caudal artery by means of an indirect method utilizing a photocell transducer/tail cuff occluder system. Time response relationships are determined for each compound following an oral dose of 50 mg/kg. Data are expressed as mm of Hg decrease from control values. Statistical significance is determined using a 2 tailed "t" test comparing drug treatment response values to those obtained from concurrent vehicle treated animals.

T1 sequence (H0W3H1 1-470): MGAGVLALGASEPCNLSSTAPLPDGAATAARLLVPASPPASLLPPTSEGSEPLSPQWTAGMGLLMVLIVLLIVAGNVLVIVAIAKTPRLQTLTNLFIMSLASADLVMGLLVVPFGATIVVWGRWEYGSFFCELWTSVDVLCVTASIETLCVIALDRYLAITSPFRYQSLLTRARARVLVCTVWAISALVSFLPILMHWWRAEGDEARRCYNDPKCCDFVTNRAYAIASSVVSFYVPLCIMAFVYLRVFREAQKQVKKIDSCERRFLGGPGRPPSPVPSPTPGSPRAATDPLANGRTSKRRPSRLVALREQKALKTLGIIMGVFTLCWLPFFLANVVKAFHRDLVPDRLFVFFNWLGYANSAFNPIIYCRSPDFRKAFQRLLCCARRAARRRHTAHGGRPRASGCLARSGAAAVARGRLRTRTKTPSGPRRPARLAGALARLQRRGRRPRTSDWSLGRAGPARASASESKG

**Q.** Which results are given for `COC(=O)c1cc(C(O)CN2CCC(n3c(=O)[nH]c4ccccc43)CC2)ccc1O` (stereo not drawn) [Compound 1, methyl 2-hydroxy-5-[1-hydroxy-2-[4-(2-oxo-1-benzimidazolinyl)piperidino]ethyl]benzoate hydrochloride]?
**A.** pA2 α (α-adrenergic receptor): 6.94; Kb (β-adrenergic receptor): 1.95 µM; pA2 BaCl2 (Direct Spasmolytic Activity) [1]: 5.90

**Q.** What does the source list for `NC(=O)c1cc(C(O)CN2CCC(n3c(=O)[nH]c4ccccc43)CC2)ccc1O` (stereo not drawn) [Compound 2, 2-hydroxy-5-[1-hydroxy-2-[4-(2-oxo-1-benzimidazolinyl)piperidino]ethyl]benzamide hydrochloride monohydrate]?
**A.** pA2 α (α-adrenergic receptor): 6.70; Kb (β-adrenergic receptor): 3.55 µM; pA2 BaCl2 (Direct Spasmolytic Activity) [1]: < 4.20

**Q.** For `CCNC(=O)c1cc(C(O)CN2CCC(n3c(=O)[nH]c4ccccc43)CC2)ccc1O` (stereo not drawn) [Compound 3, 2-hydroxy-5-[1-hydroxy-2-[4-(2-oxo-1-benzimidazolinyl)piperidino]ethyl]-N-ethylbenzamide hydrochloride], which “pA2 α” value (α-adrenergic receptor) is on record?
**A.** 6.63

**Q.** What about the Kb (β-adrenergic receptor) of the same compound?
**A.** > 4.17 µM

**Q.** What about the “pA2 BaCl2 (Direct Spasmolytic Activity)” value [1] of the same compound?
**A.** 5.16

**Q.** And the “lowers blood pressure (decrease from control values)” value ([2]; after 1 hour)?
**A.** 22 mm Hg

**Q.** What about the “lowers blood pressure (decrease from control values)” value ([2]; after 4 hours) of the same compound?
**A.** 51 mm Hg

**Q.** Which Kb (β-adrenergic receptor) does the source give for `Cc1ccc(N(CC2=NCCN2)c2cccc(O)c2)cc1` [phentolamine, reference compound] here?
**A.** > 10 µM
